One may read the melting point as the temperature, or range, at which the solid turns liquid.

In the case of `CCc1nn(CCOC(N)=O)c(CC)c1Cc1cc(Cl)cc(Cl)c1`, the melting point was 145 to 147 °C.
As to `CS(=O)c1ccc(COS(C)(=O)=O)cc1` (stereo not given), the melting point is 63 to 65 °C.
Turning to `COc1ccc(Cc2ccc3[nH]c4cnn(C)c4c(=O)c3c2)cc1`, the melting point was in the range of 248 to 249 °C.
Turning to `CN1CCCC(c2cccc(-n3cnc4cc(C(=O)OCC5CC5)ccc43)c2)C1` (stereo not given), the melting point fell in the range of 111 to 113 °C.
The result for `CCOC(=O)c1cc(C(=O)c2cccc(S(=O)(=O)F)c2)sc1N=Nc1ccc(O)c(N)n1` reads 170 to 172 °C; that for `Cc1nc2c3c(ccn2c1C)[C@@H](O)[C@@](C)(O)[C@@H](c1ccccc1)N3`, 180 °C; that for `CCOC(=O)n1cc(C#N)c(-c2cccc(Cl)c2F)c1`, 149 °C.
`CC(C)N(CCC(CCN(C(C)C)C(C)C)(C(N)=O)c1ccc(-c2ccccc2)cc1)C(C)C` had a melting point of 110 to 111 °C.
As for `O=C1O[C@@H]2C[C@@]1(O)c1cc(-c3ccccc3)sc1[C@H]2O`, the melting point was in the range of 168 to 173 °C.
The result for `CN(C)C1(c2cccs2)CC=C(c2[nH]c3ccccc3c2CCc2ccncc2)CC1` (stereo not given) reads 189 to 193 °C.
The result for `COc1cc(C=CC(=O)OC2C(O)C=C(C)C(=O)CC2(C)C)ccc1O` (stereo not given) reads 125 to 127 °C.
`Cc1c(C(=O)c2cnn(C(C)(C)C)c2O)ccc(S(C)(=O)=O)c1-c1ccc(S(C)(=O)=O)cc1`: the melting point was in the range of 187 to 188 °C.
On to `CC(C)(C)c1cc(C#Cc2ccc(NS(C)(=O)=O)cc2Cl)cc(N2CCC(=O)NC2=O)c1`, for which the melting point is 278 to 280 °C.
The result for `N#Cc1ccc(CCl)cn1` reads 45 to 47 °C; that for `CCOC(=O)c1cn(C2CC2)c2nc(N3C[C@@H](CN(CC)C(=O)C(F)(F)F)[C@@H](F)C3)c(F)cc2c1=O` (relative stereo), 150 to 153 °C; that for `CNC(=O)Nc1ccc(-c2c[nH]c(=O)cn2)cc1`, more than 300 °C.
The result for `CN1C(=O)CC[C@]2(C)c3ccc(Sc4ccc([N+](=O)[O-])cn4)cc3CC[C@@H]12` reads 188 to 191 °C; that for `COC(=O)C(=O)c1nsc(NC(=O)Oc2ccccc2)n1`, 74 to 79 °C.
`O=c1[nH]c(=O)n2c3c(cccc13)S(=O)(=O)c1ccc(C(F)(F)F)cc1-2`: the melting point lay within 290 to 293 °C.
The result for `CCCCCCCCc1cnc(-c2ccc(OCC(C)OCCC)cc2)nc1` (stereo not given) reads 37.4 °C.
For `COc1ccc2c(C3=C(c4cn(C)c5cc(OC)ccc45)C(=O)NC3=O)cn(C)c2c1`, the melting point fell in the range of 257 to 258 °C.
In turn, `COc1cc2c(c3c1OC(C)(C)C3)C(c1cccc(Nc3ccccc3)c1)=NC(C)(C)C2` came in with a melting point of 87 to 88 °C.
Compound `COc1cc2c(Cl)nc(-c3ccc(Cl)cc3)nc2c(OC)c1OC` registered a melting point of 159 °C.
In turn, `CC(C)CCS(=O)(=O)NC(=O)/C=C/c1cc(OC2CCOCC2)nn1Cc1ccc(C(F)(F)F)cc1Cl` returned a melting point of 150 to 152 °C.
The result for `Cc1ncsc1C(=O)Nc1ccc(-n2nc(C(F)(F)F)cc2C2CC2)cc1` reads 137 to 141 °C; that for `C[C@H](NC(=O)Cc1cc(F)cc(F)c1)C(=O)N[C@@H]1C(=O)Nc2ccccc2S[C@@H]1c1cc(Br)cs1`, 145 to 155 °C; that for `COc1cccc(Cc2cc(Br)ccc2O)c1`, 97 to 102 °C.
Compound `CC(C)n1nc(-c2sc(C(=O)N3CCCCC3)nc2-c2ccccc2)ccc1=O` registered a melting point of 111 to 112 °C.
As to `Cn1c(-c2ccc(-c3ccncc3)cc2)cnc1[C@H](Cc1ccccn1)N(C=O)c1cc2cc(Cl)ccc2o1`, the melting point lay in the range of 135 to 140 °C.
`CN(C)C1CCC(O)(c2ccccc2Cc2ccccc2)CC1` (stereo not given) had a melting point of 140 to 141 °C.
Take `CC12CC(O)C3c4ccccc4C(=O)CC3C1CCC2O` (stereo not given): the melting point lay within 205 to 208 °C.
The result for `C=CCSc1nc(-c2ccc(OC)cc2)c(-c2ccc(OC)cc2)s1` reads 57 to 58 °C.
For the compound `Cc1c(-c2cnccn2)ssc1=S`, the melting point is 164 °C.
`Nc1cc([N+](=O)[O-])ccc1OC(F)(F)F` showed a melting point of 90 to 91 °C.
The result for `CCOc1nn(-c2ccccn2)cc1CCCOc1cccc(CC(=O)O)c1` reads 66 to 67 °C.
For the compound `Cc1oc(-c2ccccc2)nc1C(=O)COc1ccc(C=C2SC(=O)NC2=O)cc1`, the melting point lay within 244 to 245 °C.
Consider `COc1ccc(-c2c(Cl)c(CN3C(=O)CSC3=O)nc3sc4c(c23)CCSC4)cc1`, for which the melting point was 208 to 209 °C.
The result for `Cc1noc(NS(=O)(=O)c2cccc(F)c2)c1Br` reads 125 to 128 °C.
On to `O=C(NO)c1ccc(C(=O)NOCc2ccc3ccccc3c2)cc1`, for which the melting point was in the range of 220 to 222 °C.
`COc1cc(OCCCN2CCN(c3nn(C(=O)c4ccccc4)c4cc(F)ccc34)CC2)ccc1C(C)=O`: the melting point is 138 to 140 °C.
Compound `CCCCc1nc2c(N)nc3ccccc3c2n1CCCCCCCCNC(=O)c1ccccc1` registered a melting point of 150 to 151 °C.
The result for `COC(=O)[C@@H](N=[N+]=[N-])[C@@H](O)c1ccccc1` reads 40 to 41 °C; that for `COc1ccc(C2(C#N)CCC(=O)CC2)c2c1OCCO2`, 157 to 161 °C; that for `CCOC(=O)c1cc(-c2ccc(Cl)cc2)c(Cl)nc1NC=O`, 184 to 187 °C.
Take `C[C@H](Cn1cnnn1)n1cnc2cc3c(=O)n(C4CC4)nnc3cc2c1=O`: the melting point fell in the range of 245 to 246 °C.
As to `CN(CC(=O)N1c2ccccc2N(Cc2ccccc2)C(=O)[C@H]2CCC[C@H]21)Cc1ccccc1` (relative stereo), the melting point is 75 to 78 °C.
In the case of `CCCc1c2nc(C(=O)OC)cc(Br)c2cc2c(=O)cc(C(=O)OC)oc12`, the melting point was in the range of 179 to 180 °C.
Compound `CCc1cccc(C)c1CNc1cc(C(=O)O)cn2nc(C)nc12` gave a melting point of 264 °C.
On to `COC1=CCC2=C(CCC3C2CCC2(C)C3CCC2N(C)CCCN(C)C)C1` (stereo not given), for which the melting point was in the range of 78 to 80 °C.
With `CC(C)CCC(O)C(C(=O)C(Cc1c[nH]cn1)N(C)C(=O)C(Cc1ccccc1)OC(=O)N(C)CCN(C)C(=O)C(C)C)C(N)C1CCCCC1` (stereo not given), the melting point is 68 to 72 °C.
`O=C(c1ccc(F)cc1)C1CC2CCN1CC2` (stereo not given): the melting point is 68 to 69 °C.
In the case of `O=Cc1c(Cl)cc(Cl)cc1-c1ccc(F)cc1`, the melting point is 73 to 74 °C.
The compound `COc1ccccc1[C@H](c1cccc2ccccc12)[C@@](C)(C#N)C(=O)N1CCN(c2cccc(C(F)(F)F)c2)CC1` registered a melting point of 158 to 162 °C.
The compound `CCOP(=O)(CC(=O)N1c2ccccc2NC(=O)c2ccccc21)OCC` registered a melting point of 195 to 197 °C.
Consider `COc1ccc(NC(=O)c2ccc(-c3ccncc3)s2)cc1N1CCN(C)CC1`, for which the melting point was 191 to 194 °C.
The compound `CCC(=S)NC[C@H]1CN(c2ccc(N3CCOCC3)c(F)c2)C(=O)O1` showed a melting point of 138 to 139 °C.
For the compound `CN1CCCCC1CCc1ccccc1NC(=O)c1ccccc1C(=O)O` (stereo not given), the melting point lay in the range of 171 to 172 °C.
Regarding `CCCCCCCCCCCCCCCCCCOCCSCCOC(=O)NCc1ccccn1`, the melting point fell in the range of 60 to 62 °C.
The result for `CCOC(=O)C(C#N)C(=O)c1ccc[nH]1` (stereo not given) reads 138 to 139 °C; that for `Cc1ccc(-c2cc(OCC(=O)N3CCOCC3)c3ccccc3n2)cc1`, 146 °C; that for `COC(=O)c1ccc2oc(CCc3cc4cc(C(=O)OC)ccc4o3)cc2c1`, 165 to 167 °C.
The compound `CC(C(=O)CC#N)c1ccc(-c2ccccc2)c(F)c1` (stereo not given) gave a melting point of 84 to 85 °C.
For the compound `Cc1nc(-n2cc(CCc3ccccc3)nn2)sc1C(=O)NCc1ccccc1`, the melting point was in the range of 167 to 170 °C.
The result for `CCOC(=O)c1c(C)nn(C)c1CSC(=N)N` reads 175 to 180 °C.
The compound `NCCCCCC(=O)Nc1cccc(C(=O)NCCC(=O)O)c1` displayed a melting point of 221 °C.
For `CC(C)(C)COc1ccc(N)cc1Br`, the melting point was found to be 45 °C.
Regarding `CCOC(=O)C1(C(=O)OCC)CCC2(c3cc(OC)c(OC)cc3CCN2C(=O)CCN(C)C)C(C2c3cc(OC)c(OC)cc3CCN2C(C)=O)C1` (stereo not given), the melting point lay within 154 to 156 °C.
The result for `C[C@H](NC(=O)Nc1cccc(CC(=O)O)c1)C(=O)N1[C@@H](c2ccccc2F)SC[C@H]1C(=O)OC(C)(C)C` reads 110 °C; that for `CN(C)C1=NC(=O)C(Cc2cccc(-c3ccc(O)c(C4(C)CCCCC4)c3)c2)S1` (stereo not given), 108 to 110 °C.
Turning to `O=C(N1CCc2cccc(O)c2CC1)C(F)(F)F`, the melting point lay in the range of 183 to 186 °C.
On to `COC(=NC(=O)c1ccc(F)cc1)N1Cc2ccccc2-c2ccccc2C1`, for which the melting point was in the range of 136 to 138 °C.
`CCCCCCCCCCCC1CCC(O)C(=O)O1` (stereo not given) yielded a melting point of 95 to 96 °C.
In turn, `Cc1cc2c(nc(C)n2CCc2ccccc2)c(N(Cc2ccccc2)Cc2ccccc2)n1` came in with a melting point of 124 to 126 °C.
For `CCOC(=O)c1ccc(COc2cccc3oc(C)cc23)cc1`, the melting point lay within 59 to 61 °C.
As to `O=C(NCc1ccccc1)C1=C(c2ccccc2)C(c2ccccc2)OC1=O` (stereo not given), the melting point lay in the range of 173 to 175 °C.
`CCOC(=O)CNc1ncccc1[N+](=O)[O-]` displayed a melting point of 38 to 39 °C.
Regarding `O=C1CCC(=O)N1CC(O)COc1ccccc1` (stereo not given), the melting point stood at 130 °C.
In the case of `Cc1sc(N2C(=O)c3ccccc3C2=O)c(C(=O)c2ccc(Cl)cc2)c1CN(C)Cc1ccccc1`, the melting point was 197 to 199 °C.
For the compound `COc1ccc(C2COc3cc(O)c(O)cc3C2)cc1OC` (stereo not given), the melting point was 153 °C.
The result for `CCOC(=O)c1ccc(-c2nc(COc3ccc(COc4nn(-c5ccccc5)cc4/C=C/P(=O)(OCC)OCC)cc3OC)c(C)o2)o1` reads 129 to 130 °C; that for `O=C(Nc1ccc(C(=O)N2Cc3cccnc3Oc3ccccc32)cn1)c1ccccc1-c1ccccc1`, 107 to 114 °C; that for `Brc1ccc(SC2CCN(C(c3ccccc3)(c3ccccc3)c3ccccc3)CC2)cc1`, 174 to 175 °C.
As for `Cc1cccc2c1C(=O)C([N+](=O)[O-])C2=O` (stereo not given), the melting point lay in the range of 108 to 109 °C.
For `COc1cc(O)c(C=O)cc1Br`, the melting point fell in the range of 63 to 64 °C.
The result for `CC(=O)OCc1c(C(=O)C(=O)O)c2cc(-c3ccc(OC(F)(F)F)cc3)ccc2n1Cc1ccccc1` reads 85 to 86 °C.

The values above are taken from a melting point compilation (Tetko et al.; mined from patent text by program, amines drawn as free bases though some values may be those of a salt).
